From patent US20240217963A1, “RECEPTOR-INTERACTING PROTEIN 1 INHIBITORS, PREPARATIONS, AND USES THEREOF” (SIRONAX LTD., priority 2021, published 2024) come the findings set out here.

In this assay the target is T1, RIP1 (Homo sapiens, UniProt Q13546).
T1 sequence (Q13546 1-671): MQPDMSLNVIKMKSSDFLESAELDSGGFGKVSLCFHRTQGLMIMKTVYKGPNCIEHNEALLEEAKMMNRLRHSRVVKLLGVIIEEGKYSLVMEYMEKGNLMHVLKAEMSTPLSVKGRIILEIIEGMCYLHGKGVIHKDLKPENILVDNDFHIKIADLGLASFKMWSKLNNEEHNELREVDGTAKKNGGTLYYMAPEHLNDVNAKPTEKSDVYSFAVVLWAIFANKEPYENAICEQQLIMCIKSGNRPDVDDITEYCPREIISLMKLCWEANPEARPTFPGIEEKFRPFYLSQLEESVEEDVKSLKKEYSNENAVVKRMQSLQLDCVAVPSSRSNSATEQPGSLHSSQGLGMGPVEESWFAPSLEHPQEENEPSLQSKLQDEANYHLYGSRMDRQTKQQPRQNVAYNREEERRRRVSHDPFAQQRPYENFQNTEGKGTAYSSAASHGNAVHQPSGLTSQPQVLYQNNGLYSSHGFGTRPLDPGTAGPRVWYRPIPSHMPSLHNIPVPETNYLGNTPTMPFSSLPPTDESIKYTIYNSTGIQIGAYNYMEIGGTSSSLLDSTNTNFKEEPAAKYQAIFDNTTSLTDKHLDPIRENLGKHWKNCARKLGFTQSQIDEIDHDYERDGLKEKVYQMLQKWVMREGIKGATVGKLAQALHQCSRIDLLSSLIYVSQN
Put plainly: Cellular RIP1 inhibitory activity: HT-29 necroptosis (TNFα/SMAC mimetic/zVAD-FMK) CellTiter-Glo viability assay. It counts as cell-based. Conditions: HT-29 cells, TNF-α 10 ng/ml + SMAC mimetic 6 μM + zVAD-FMK 10 μM, 20 hours, geometric mean, read-out: EC50 Values of in vitro Cellular RIP1 Inhibitory Activity. As for the experimental part: Compounds 1-99 (denoted as Cmpd Nos. 1 through 99 in Table 2 below) of the disclosure were tested for binding and cellular RIP1 inhibitory activity following the experimental procedures described below. Cell Seeding • 1. HT-29 cells were checked every day to make sure that they were healthy and growing as expected. They were subjected to sub-culturing when they were approximately 80% confluent. • 2. The culture medium, McCOY's 5 A medium (Gibco, Cat No. 16600-082) with 10% fetal bovine serum or FBS (Gibco, Cat No. 10099-141C), was pre-warmed in a 37° C. water bath for at least 30 min. • 3. When the cells had reached a desired level of confluency of 80% in a T75 flask, the medium was aspirated, and the cells were washed with warm phosphate buffered saline or PBS two times. • 4. 2-3 ml fresh warm trypsin (Gibco, Cat No. 25200-056) solution was added to the washed cells. The flask with the cells was transferred to a 37° C. incubator. • 5. After 5 minutes, the side of the flask was tapped, and the flask was examined under a microscope for detachment of the cells to the flask. If necessary, the cells were kept in the incubator for an additional 5-10 minutes, with occasional tapping, until lifting was complete. • 6. The trypsin reaction was neutralized by transferring 6-9 ml cell culture medium to sterile 15 ml conical tubes, and by centrifuging the cell culture at 300×g for 7 minutes to pellet the cells (supernatant decanted). • 7. The cells were resuspended in fresh cell culture medium and the cell counting was performed using a hemocytometer. • 8. 100 μl of the resuspended cell culture medium containing ˜5,000 cells were transferred into each well of the sterile 96-well cell culture plate (Corning 3903) and cultured overnight at 37° C. with 5% CO2. Compound Titration and Treatment • 1. All test compounds were dissolved in DMSO (Dimethyl sulfoxide) to create a 20 mM stock. • 2. 3 μl of each compound 20 mM stock was mixed with 27 μl DMSO, and the compound solution was further diluted at a titration ratio of 1:3 (20 μl compound solution+40 μl DMSO) till the 10 points end. • 3. All culture medium was removed from assay plates filled with HT-29 cell cultures. […] 0.5 μL of the diluted compound solution was added to the corresponding 96-well assay plates. • 5. The assay plates were incubated for 20 hours at 37° C. with 5% CO2. Cell Viability Detection • 1. The CellTiter-Glo® Luminescent Cell Viability Assay was employed to detect the ATP levels of viable HT-29 cells. • 2. The CellTiter-Glo® buffer and the lyophilized substrate were equilibriated to room temperature prior to use. • 3. The CellTiter-Glo® substrate was resuspended with CellTiter-Glo® buffer, then mixed by gently vortexing to obtain a homogeneous solution. • 4. 20 μl the enzyme/substrate mixture was transferred by multi-channel pipetting into 96-well assay plates. • 5. The assay plates were placed on an orbital shaker and the contents were shaken for 3 minutes to induce cell lysis. • 6. The assay plates were incubated at room temperature for 10 minutes to stabilize the luminescent signal. • 7. The luminescence signals were read and recorded with EnVision. • 8. The geometric mean EC50 values were calculated from 10 points response dose with duplicates. In Table 2, activity is provided as follows: +++=0.1 nM≤EC50<100 nM; ++=100 nM≤EC50<1000 nM; +=1000 nM≤EC50<10000 nM.
Regarding `Cc1cnn(C)c1-c1nc(N2CCC(C(=O)N(O)Cc3ccc(F)cn3)CC2)ncc1F` [Compound 10, 1-(4-(1,4-dimethyl-1H-pyrazol-5-yl)-5-fluoropyrimidin-2-yl)-N-((5-fluoropyridin-2-yl)methyl)-N-hydroxypiperidine-4-carboxamide], the EC50 fell in the range of 0.1 to 100 nM. As to `Cc1cnn(C)c1-c1nc(N2CCC(C(=O)N(O)Cc3cnn(C)c3)CC2)ncc1F` [Compound 3, 1-(4-(1,4-dimethyl-1H-pyrazol-5-yl)-5-fluoropyrimidin-2-yl)-N-hydroxy-N-((1-methyl-1H-pyrazol-4-yl)methyl)piperidine-4-carboxamide], the EC50 fell in the range of 0.1 to 100 nM. The value for `[2H]C([2H])([2H])N(Cc1nc(C)cs1)C(=O)C1CCN(c2ncc(F)c(-c3c(C)cnn3C)n2)CC1` [Compound 78, 1-(4-(1,4-dimethyl-1H-pyrazol-5-yl)-5-fluoropyrimidin-2-yl)-N-(methyl-d3)-N-((4-methylthiazol-2-yl)methyl)piperidine-4-carboxamide] was 0.1 to 100 nM; that for `Cc1cnn(C)c1-c1cc(N2CCC(C(=O)NCc3nccs3)CC2)c(F)cn1` [Compound 63, 1-(2-(1,4-dimethyl-1H-pyrazol-5-yl)-5-fluoropyridin-4-yl)-N-(thiazol-2-ylmethyl)piperidine-4-carboxamide] was 100 to 1000 nM; that for `Cc1cnn(C)c1-c1nc(N2CCC(C(=O)N(C)Cc3ccn(C)n3)CC2)ncc1F` [Compound 81, 1-(4-(1,4-dimethyl-1H-pyrazol-5-yl)-5-fluoropyrimidin-2-yl)-N-methyl-N-((1-methyl-1H-pyrazol-3-yl)methyl)piperidine-4-carboxamide] was 0.1 to 100 nM. The same measure for `Cn1ncnc1-c1nc(N2CCC(C(=O)NCc3cc(F)cc(F)c3F)CC2)ncc1F` [Compound 21, 1-(5-fluoro-4-(1-methyl-1H-1,2,4-triazol-5-yl)pyrimidin-2-yl)-N-(2,3,5-trifluorobenzyl)piperidine-4-carboxamide]: 0.1 to 100 nM; for `Cc1cnn(C)c1-c1nc(N2CCC(C(=O)N(O)Cc3cncn3C)CC2)ncc1F` [Compound 40, 1-(4-(1,4-dimethyl-1H-pyrazol-5-yl)-5-fluoropyrimidin-2-yl)-N-hydroxy-N-((1-methyl-1H-imidazol-5-yl)methyl)piperidine-4-carboxamide]: 1000 to 10000 nM; for `Cc1cnn(C)c1-c1nc(N2CCC(C(=O)N(C)Cc3nccs3)CC2)ncc1F` [Compound 95, 1-(4-(1,4-dimethyl-1H-pyrazol-5-yl)-5-fluoropyrimidin-2-yl)-N-methyl-N-(thiazol-2-ylmethyl)piperidine-4-carboxamide]: 0.1 to 100 nM. On to `Cc1cnn(C)c1-c1nc(N2CCC(C(=O)N(O)Cc3ccc(F)nc3)CC2)ncc1F` [Compound 26], for which the EC50 fell in the range of 0.1 to 100 nM. The value for `Cc1cnn(C)c1-c1nc(N2CCC(C(=O)N(O)Cc3cc(F)cc(C#N)c3)CC2)ncc1F` [Compound 32, N-(3-cyano-5-fluorobenzyl)-1-(4-(1,4-dimethyl-1H-pyrazol-5-yl)-5-fluoropyrimidin-2-yl)-N-hydroxypiperidine-4-carboxamide] was 0.1 to 100 nM. Take `Cc1cnn(C)c1-c1nc(N2CCC(C(=O)N(O)Cc3ccccn3)CC2)ncc1F` [Compound 31, 1-(4-(1,4-dimethyl-1H-pyrazol-5-yl)-5-fluoropyrimidin-2-yl)-N-hydroxy-N-(pyridin-2-ylmethyl)piperidine-4-carboxamide]: the EC50 lay within 0.1 to 100 nM. For the compound `CCN(Cc1cscn1)C(=O)C1CCN(c2ncc(F)c(-c3c(C)cnn3C)n2)CC1` [Compound 94, 1-(4-(1,4-dimethyl-1H-pyrazol-5-yl)-5-fluoropyrimidin-2-yl)-N-ethyl-N-(thiazol-4-ylmethyl) piperidine-4-carboxamide], the EC50 is 0.1 to 100 nM.

`CCN(Cc1nc(C)cs1)C(=O)C1CCN(c2ncc(F)c(-c3c(C)cnn3C)n2)CC1` [Compound 72, 1-(4-(1,4-dimethyl-1H-pyrazol-5-yl)-5-fluoropyrimidin-2-yl)-N-ethyl-N-((4-methylthiazol-2-yl)methyl)piperidine-4-carboxamide]: the EC50 lay in the range of 0.1 to 100 nM. Regarding `Cc1cnn(C)c1-c1nc(N2CCC(C(=O)NCC3CCCCC3)CC2)ncc1F` [Compound 28, N-(cyclohexylmethyl)-1-(4-(1,4-dimethyl-1H-pyrazol-5-yl)-5-fluoropyrimidin-2-yl)piperidine-4-carboxamide], the EC50 is 0.1 to 100 nM. Regarding `Cc1nc(CN(C)C(=O)C2CCN(c3ncc(F)c(-c4c(C)cnn4C)n3)CC2)c(C)s1` [Compound 92], the EC50 is 100 to 1000 nM. The value for `Cc1nc(C)c(CNC(=O)C2CCN(c3ncc(F)c(-c4c(C)cnn4C)n3)CC2)s1` [Compound 22, 1-(4-(1,4-dimethyl-1H-pyrazol-5-yl)-5-fluoropyrimidin-2-yl)-N-((2,4-dimethylthiazol-5-yl)methyl)piperidine-4-carboxamide] was 100 to 1000 nM; that for `Cc1cnn(C)c1-c1cc(N2CCC(C(=O)N(O)Cc3cc(F)cc(F)c3)CC2)ncn1` [Compound 41, N-(3,5-difluorobenzyl)-1-(6-(1,4-dimethyl-1H-pyrazol-5-yl)pyrimidin-4-yl)-N-hydroxypiperidine-4-carboxamide] was 0.1 to 100 nM. On to `Cc1cnn(C)c1-c1nc(N2CCC(C(=O)N(C)Cc3cc(F)cc(F)c3)CC2)ncc1F` [Compound 85, N-(3,5-difluorobenzyl)-1-(4-(1,4-dimethyl-1H-pyrazol-5-yl)-5-fluoropyrimidin-2-yl)-N-methylpiperidine-4-carboxamide], for which the EC50 lay in the range of 0.1 to 100 nM. `Cc1cnn(C)c1-c1nc(N2CCC(C(=O)NCc3cnn(C)c3)CC2)ncc1F` [Compound 45, 1-(4-(1,4-dimethyl-1H-pyrazol-5-yl)-5-fluoropyrimidin-2-yl)-N-((1-methyl-1H-pyrazol-4-yl)methyl)piperidine-4-carboxamide]: the EC50 was in the range of 1000 to 10000 nM. For `Cc1cnn(C)c1-c1ccc(OC2CC(C(=O)N(O)Cc3cc(F)cc(F)c3)C2)c(F)n1` (stereo not shown) [Compound 54, N-(3,5-difluorobenzyl)-3-((6-(1,4-dimethyl-1H-pyrazol-5-yl)-2-fluoropyridin-3-yl)oxy)-N-hydroxycyclobutane-1-carboxamide], the EC50 is 100 to 1000 nM. For the compound `Cc1nc(C)n(-c2nc(N3CCC(C(=O)NCc4cc(F)cc(F)c4F)CC3)ncc2F)n1` [Compound 5, 1-(4-(3,5-dimethyl-1H-1,2,4-triazol-1-yl)-5-fluoropyrimidin-2-yl)-N-(2,3,5-trifluorobenzyl)piperidine-4-carboxamide], the half-maximal effective concentration (EC50) is 0.1 to 100 nM. As for `Cc1cnn(C)c1-c1nc(N2CCC(C(=O)N(O)Cc3cc(F)cc(F)c3)CC2)ncc1F` [Compound 4, N-(3,5-difluorobenzyl)-1-(4-(1,4-dimethyl-1H-pyrazol-5-yl)-5-fluoropyrimidin-2-yl)-N-hydroxypiperidine-4-carboxamide], the EC50 was 0.1 to 100 nM.
